The text below walks through data of PubChem BioAssay (NCI).

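Protocol summary: plate cells (96-well), add compound at 5 concentrations, incubate 48 h, interpolate endpoints linearly. TGI: total growth inhibition.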

Among the test systems are ACHN renal; DU-145 prostate; HT29 colon; IGROV1 ovarian; MDA-MB-435; RPMI-8226 leukemia; RXF 393 renal; SK-OV-3 ovarian; NCI-H226 lung; SK-MEL-2 melanoma.
Common to all, as to assay: inhibition of tumour cell growth, NCI panel, 48 h

In the case of `C=CC(C)(C)/C(=C\CO[Si](C(C)C)(C(C)C)C(C)C)C(=O)N(C)c1ccccc1I`, the TGI in the experiment on ACHN renal stood at 25.8 µM; with DU-145 prostate it was 29.4 µM; in the experiment with HT29 colon, 27.1 µM; in the experiment on IGROV1 ovarian, 30.3 µM; with MDA-MB-435, 73.9 µM; in the experiment with RPMI-8226 leukemia, 8.54 µM. For the same compound, the TGI with RXF 393 renal came to 24.5 µM; with SK-OV-3 ovarian it was 33.1 µM.
Regarding `C=C1C(=O)OC2C[C@@]3(C)CCCC(=C)C3CC12` (some centres not stated), the TGI was found to be 26.9 µM in the experiment with ACHN renal; 24 µM with HT29 colon; 33.3 µM in the experiment on IGROV1 ovarian; 26 µM in the experiment on NCI-H226 lung; 10.5 µM in the experiment with RXF 393 renal; 12.7 µM with SK-MEL-2 melanoma. The compound also gave a TGI in the experiment with SK-OV-3 ovarian of 33.7 µM.
Consider `O=Cc1c2c(cc3c1CC1(C3)Cc3cc4c(c(C=O)c3C1)CCC4)CCC2`, for which the TGI with ACHN renal was 43.6 µM; in the experiment with HT29 colon it was > 100 µM; with IGROV1 ovarian, > 100 µM; with MDA-MB-435, > 100 µM; in the experiment on NCI-H226 lung, > 100 µM; in the experiment with RPMI-8226 leukemia, > 100 µM. Besides, the TGI is > 100 µM with RXF 393 renal, 50.8 µM with SK-MEL-2 melanoma and > 100 µM in the experiment with SK-OV-3 ovarian.
For the compound `C=CCCCN(C(=O)c1ccccc1)c1ccc(C(=O)OC)o1`, the TGI with ACHN renal, with DU-145 prostate, in the experiment on HT29 colon, with IGROV1 ovarian, in the experiment on NCI-H226 lung and in the experiment on RXF 393 renal was > 100 µM each time. The TGI in the experiment on SK-MEL-2 melanoma and in the experiment with SK-OV-3 ovarian was > 100 µM in each case.
Turning to `O=c1[nH]c(=S)[nH]c2c1CCCN2`, the TGI in the experiment on ACHN renal, in the experiment on HT29 colon, with IGROV1 ovarian, with RPMI-8226 leukemia, with RXF 393 renal and with SK-MEL-2 melanoma was > 100 µM throughout. In addition, in the experiment on SK-OV-3 ovarian, the TGI was > 100 µM.
In the case of `O=C(CCC(NC(=O)OCc1ccccc1)C(=O)OCc1ccccc1)Nc1cccc(OCc2ccccc2)c1` (configuration not stated), the TGI was > 100 µM in the experiment on ACHN renal; 79.6 µM with DU-145 prostate; 70.9 µM in the experiment with HT29 colon; 71.1 µM in the experiment on IGROV1 ovarian; 43.1 µM with MDA-MB-435; > 100 µM in the experiment with NCI-H226 lung. The TGI in the experiment with RXF 393 renal was 46.8 µM; in the experiment on SK-OV-3 ovarian it was > 100 µM.
As for `NCCCNCCSP(=O)(O)O`, the TGI is > 750 µM in the experiment on HT29 colon; > 750 µM in the experiment on IGROV1 ovarian; > 750 µM in the experiment with NCI-H226 lung; > 750 µM in the experiment on RPMI-8226 leukemia; > 750 µM in the experiment with RXF 393 renal; > 700 µM in the experiment with SK-MEL-2 melanoma. For the same compound, the TGI with SK-OV-3 ovarian is > 750 µM.
As for `O=Cn1c2ccccc2c2ccccc21`, the TGI in the experiment with ACHN renal, with IGROV1 ovarian, with RPMI-8226 leukemia, in the experiment with RXF 393 renal, with SK-MEL-2 melanoma and with SK-OV-3 ovarian was > 100 µM throughout.
Regarding `COc1ccc(-c2csc3c2[N+]2(C)C=CC=C2C3N2CCCC2)cc1` (configuration not stated), the TGI in the experiment on ACHN renal is > 100 µM; in the experiment with HT29 colon, 43 µM; in the experiment with IGROV1 ovarian it was 27.2 µM; in the experiment with MDA-MB-435, 59.5 µM; in the experiment with NCI-H226 lung it was 26.5 µM; with RPMI-8226 leukemia, > 100 µM. The TGI with RXF 393 renal is > 100 µM; in the experiment with SK-MEL-2 melanoma it was 31.1 µM; with SK-OV-3 ovarian, > 100 µM.
Turning to `COc1cc(/C=C2\N=C(c3ccccc3)N(c3cc4cc(Sc5ccccc5)ccc4[nH]3)C2=O)ccc1O`, the TGI in the experiment on ACHN renal is > 50 µM; in the experiment on DU-145 prostate, > 50 µM; with HT29 colon it was > 50 µM; in the experiment on IGROV1 ovarian it was > 50 µM; in the experiment with MDA-MB-435 it was 5.56 µM; in the experiment on NCI-H226 lung it was > 50 µM. In addition, in the experiment on RXF 393 renal, the TGI came to 27.4 µM.
Take `c1ccc(C2N=C(c3ccccn3)C(c3ccccn3)=NC2c2ccccc2)cc1` (configuration not stated): the TGI with ACHN renal, in the experiment with HT29 colon, in the experiment with IGROV1 ovarian, in the experiment on NCI-H226 lung, in the experiment on RPMI-8226 leukemia and with RXF 393 renal was > 100 µM throughout. Besides, the TGI with SK-MEL-2 melanoma and in the experiment with SK-OV-3 ovarian was > 100 µM throughout.
Regarding `CN(C)Cc1cc(/C=C/C(=O)c2ccc(Br)cc2)cc(CN(C)C)c1O`, the TGI was 24.7 µM with ACHN renal; 33.7 µM with DU-145 prostate; 62.4 µM in the experiment with HT29 colon; 23.4 µM in the experiment on IGROV1 ovarian; 36.8 µM in the experiment on MDA-MB-435; 26.5 µM in the experiment with RPMI-8226 leukemia. Also, the figures for the TGI in the experiment with RXF 393 renal, with SK-MEL-2 melanoma and in the experiment with SK-OV-3 ovarian were 74.5 µM, 90.5 µM and 55.1 µM, respectively.
As to `COC(=O)c1c(CC(=O)OC(C)C)cc2n(c1=O)Cc1c-2nc2ccccc2c1OC`, the TGI in the experiment with ACHN renal is > 100 µM; in the experiment with HT29 colon, > 100 µM; with IGROV1 ovarian, > 100 µM; in the experiment with NCI-H226 lung, > 100 µM; in the experiment on RPMI-8226 leukemia, > 100 µM; with RXF 393 renal, 99.6 µM. The TGI in the experiment with SK-MEL-2 melanoma and in the experiment on SK-OV-3 ovarian was > 100 µM throughout.
`CCOC(=O)c1c(SC(=O)c2ccc(Cl)cc2)n(-c2ccccc2)c(=S)n(-c2ccccc2)c1=O`: the TGI in the experiment on ACHN renal, in the experiment on DU-145 prostate, in the experiment on HT29 colon, in the experiment on IGROV1 ovarian, in the experiment on MDA-MB-435 and with NCI-H226 lung was > 100 µM throughout. The TGI with RXF 393 renal and in the experiment with SK-OV-3 ovarian was > 100 µM in each case.
As for `Cc1cc2ccccc2n2c1nc1ccc(O)cc12`, the TGI with ACHN renal, with DU-145 prostate, with HT29 colon, with IGROV1 ovarian, in the experiment on MDA-MB-435 and in the experiment with RPMI-8226 leukemia was > 10 µM each time. Besides, the TGI in the experiment on RXF 393 renal, with SK-MEL-2 melanoma and with SK-OV-3 ovarian was > 10 µM in each case.
As to `O=C(NNC(=O)c1ccncc1)C(=O)Nc1cc(Cl)c(Cl)cc1Cl`, the TGI with ACHN renal, with HT29 colon, with IGROV1 ovarian, in the experiment on MDA-MB-435, with NCI-H226 lung and in the experiment with RPMI-8226 leukemia was > 100 µM each time. Moreover, the TGI in the experiment with RXF 393 renal, in the experiment on SK-MEL-2 melanoma and with SK-OV-3 ovarian was > 100 µM throughout.
